According to patent US8452543B2, “High throughput screening for antimicrobial dosing regimens” (priority 2005, dated 2013):
Values joined by “and” are separate entries in the source; they are usually repeats but may differ in a detail not shown here. Identical values can stand only once.

Experiments:
[1] = test system: gentamicin resistant P. aeruginosa isolates; conditions: after serial passage on drug-free plates and storage at −70° C.
P. aeruginosa ATCC 27853 [2] = assay: MIC/MBC, modified macrobroth dilution; format: cell-based, Pseudomonas aeruginosa; conditions: P. aeruginosa isolate (PA 27853)
Protocol: The final concentration of bacteria in each macrobroth dilution tube was approximately 5×10^5 cfu/ml of Ca-MHB. Serial twofold dilutions of meropenem were used. […] Samples (50 μl) from clear tubes and the cloudy tube with the highest drug concentration were plated on Mueller-Hinton agar (MHA) plates (Hardy Diagnostics, Santa Maria, Calif.). […] Drug carry-over effect was assessed by visual inspection of the distribution of colonies on media plates. The studies were conducted in duplicate and repeated at least once on a separate day.

P. aeruginosa ATCC 27853 [3] = assay: Time-kill studies and best-fit model, gentamicin; format: cell-based, Pseudomonas aeruginosa; conditions: PA 27853
Protocol: A clinical relevant concentration range of gentamicin (from 0-32 mg/l) was used. […] The data were used as inputs to derive the best-fit model parameter estimates, as previously described (24, 17). The baseline inoculum (10^7 CFU/ml) was deemed to be dense enough to constitute a heterogeneous bacterial population. […] In Table 5: PA—P. aeruginosa, AB—A. baumannii, Kg—growth rate constant for bacterial population, Nmax—maximum population size, Kk—maximal kill rate constant for bacterial population, C50k—concentration to achieve 50% of maximal kill rate for bacterial population, H—sigmoidicity constant for bacterial population, β—maximal adaptation, and τ—rate of adaptation factor.

S. aureus ATCC 29213 = assay: Hollow-fiber infection model, gentamicin; format: cell-based, Staphylococcus aureus
Protocol: The computer simulations were compared to experimental data from an in-vitro hollow fiber infection model with similar antimicrobial agent exposures (20). Basically the drug was injected directly into the central reservoir to achieve the peak concentration desired. Fresh (drug-free) growth medium (Ca-MHB) was continuously infused from the diluent reservoir into the central reservoir to dilute the drug in order to simulate drug elimination in humans. […] Bacteria were inoculated into the extracapillary compartment of the hollow-fiber cartridge (Fibercell Systems, Inc., Frederick, Md.); they are confined in the extracapillary compartment, but are exposed to the fluctuating drug concentration in the central reservoir by means of an internal circulatory pump in the bioreactor loop. The optional absorption compartment of the system was not used.

[4] = test system: S. aureus ATCC 29213 and clinical isolates 55, 60, 25, 62; assay: Time-kill studies and pharmacodynamic modeling, gentamicin; format: cell-based, Staphylococcus aureus
Protocol: Time-kill studies were conducted with different and escalating meropenem concentrations. […] An overnight culture of the isolate was diluted 30-fold with pre-warmed Ca-MHB and incubated further at 35 8 C until reaching late log phase growth. The bacterial suspension was diluted with Ca-MHB accordingly based on absorbance at 630 nm; 15 mL of the suspension was transferred to 50 mL sterile conical flasks each containing 1 mL of an antimicrobial agent solution at 16 the target concentration. The final concentration of the bacterial suspension in each flask was 1×10^8 cfu/mL. The high inoculum used was to simulate the bacterial load in severe infection, and to allow resistant sub-population(s) to be present at baseline. The experiment was conducted for 24 h in a shaker water bath set at 35 8 C. Serial samples in duplicate were obtained from each flask over 24 h, at 0 (baseline), 2, 4, 8, 12, and 24 h, to characterize the effect of various meropenem concentrations on the total bacterial population. Prior to culturing the bacteria quantitatively, the bacterial samples (0.5 mL) were centrifuged at 10000 g for 15 min, and reconstituted with sterile normal saline to their original volumes in order to minimize drug carry-over effect. Total bacterial populations were quantified by spiral plating 10 serial dilutions of the samples ([…]) onto MHA plates. The media plates were incubated in a humidified incubator (35 8 C) for 18-24 h, and the bacterial density from each sample was determined by CASBA-4 colony scanner/software (Spiral Biotech, Bethesda, Md., USA).
In contrast to the conventional approach in which the final observed effects are modelled, information over time was utilized to develop a dynamic model system that would capture bacterial growth/killing rates. The starting point was a mathematical model describing the time course of bacterial burden [biological response, N(t)] under the influence of various antimicrobial agent concentrations C(t). The rate of change of bacteria over time was expressed as the difference between the intrinsic bacterial growth rate and the kill rate provided by the antimicrobial agent (Eq. 35). Based on previous studies, a linear bacterial growth rate was adopted. Additional model parameters were used to account for other physiological phenomena such as contact inhibition (using a maximum population size) and non-linear (sigmoidal) kill rate to account for target site saturation. Regrowth was attributed to adaptation, which was explicitly modelled as increase in the concentration necessary to achieve 50% maximal kill rate (C50k), using a saturable function of antimicrobial agent selective pressure (both meropenem concentration and time) (Eq. 36).
Time-kill modeling was performed for S. Aureus and gentamicin as for P. aeruginosa according to procedures and dynamic growth modeling in Examples 2-3.

P. aeruginosa ATCC 27853 [5] = assay: Hollow fiber infection model, gentamicin; format: cell-based, Pseudomonas aeruginosa; conditions: Cmax/MIC of 30 every 12 h
Protocol: The media plates were incubated at 35° C. for up to 24 (total population) and 72 hours (sub-populations with reduced susceptibility), then bacterial density from each sample was enumerated visually. The theoretical lower limit of detection was 400 CFU/ml.

[6] = test system: S. aureus ATCC 29213 and clinical isolates 55, 60, 25, 62; assay: MIC/MBC of S. aureus isolates to gentamicin; format: cell-based, Staphylococcus aureus
Protocol: Minimum inhibitory concentration (MIC)/minimum bactericidal concentration (MBC) were determined in Ca-MHB using a modified macrobroth dilution method as described by the CLSI (10). The final concentration of bacteria in each macrobroth dilution tube was approximately 5×10^5 cfu/ml of Ca-MHB. […] Samples (50 μl) from clear tubes and the cloudy tube with the highest drug concentration were plated on Mueller-Hinton agar (MHA) plates (Hardy Diagnostics, Santa Maria, Calif.). […] Drug carry-over effect was assessed by visual inspection of the distribution of colonies on media plates. The studies were conducted in duplicate and repeated at least once on a separate day. […]

[7] = test system: amikacin resistant A. baumannii isolates; assay: Resistance confirmation, repeat susceptibility testing, amikacin; format: cell-based, Acinetobacter baumannii; conditions: amikacin resistant isolates

Substance: gentamicin
- stability of resistance [1]: not stable
- MBC (P. aeruginosa ATCC 27853 [2]): 2 mg/l and 2/2 mg/l
- MIC (P. aeruginosa ATCC 27853 [2]): 2 mg/l and 2/2 mg/l
- C50k (P. aeruginosa ATCC 27853 [3]): 0.72 mg/L
- H (P. aeruginosa ATCC 27853 [3]): 3.73
- Kk (P. aeruginosa ATCC 27853 [3]): 4.68 h⁻¹
- β (P. aeruginosa ATCC 27853 [3]): 42.54
- τ (P. aeruginosa ATCC 27853 [3]): 225 µL/min/mg
- microbiologic response with repeated dosing (S. aureus ATCC 29213; 3-times-daily dosing regimen): sustained bacterial suppression over 5 days
- killing at 24 h (S. aureus ATCC 29213; both dosing regimens (once daily and 3 times daily, identical daily doses)): approximately 5 log
- microbiologic response with repeated dosing (S. aureus ATCC 29213; once-daily dosing regimen, over the next 4 days): regrowth was apparent
- C50K ([4]; S. aureus strain 25): 3.18 mg/L
- H ([4]; S. aureus strain 25): 1.27
- β ([4]; S. aureus strain 25): 9,952
- τ ([4]; S. aureus strain 25): 0.33 µL/min/mg
- C50K ([4]; S. aureus strain 55): 2.58 mg/L
- H ([4]; S. aureus strain 55): 1.07
- β ([4]; S. aureus strain 55): 166.5
- τ ([4]; S. aureus strain 55): 29.7 µL/min/mg
- C50K ([4]; S. aureus strain 60): 1.05 mg/L
- H ([4]; S. aureus strain 60): 1.52
- β ([4]; S. aureus strain 60): 427.9
- τ ([4]; S. aureus strain 60): 46.2 µL/min/mg
- C50K ([4]; S. aureus strain 62): 0.65 mg/L
- H ([4]; S. aureus strain 62): 1.61
- β ([4]; S. aureus strain 62): 336.2
- τ ([4]; S. aureus strain 62): 119 µL/min/mg
- C50K ([4]; S. aureus strain ATCC 29213): 5.14 mg/L
- H ([4]; S. aureus strain ATCC 29213): 0.75
- β ([4]; S. aureus strain ATCC 29213): 14,620
- τ ([4]; S. aureus strain ATCC 29213): 1.83 µL/min/mg
- concentrations beyond which the rate of killing seemed to plateau ([4]; all five S. aureus isolates): 4 to 8 times the MIC
- bactericidal activity ([4]; gentamicin concentration increased from 0.5 to 4 times the MIC): concentration dependent
- microbial response (P. aeruginosa ATCC 27853 [5]): Sustained suppression of resistance emergence was achieved
- MBC ([6]; S. aureus strain 25): 2 μ/mL
- MIC ([6]; S. aureus strain 25): 1 μ/mL
- MBC ([6]; S. aureus strain 55): 2 μ/mL
- MIC ([6]; S. aureus strain 55): 0.5 μ/mL
- MBC ([6]; S. aureus strain 60): 2 μ/mL
- MIC ([6]; S. aureus strain 60): 1 μ/mL
- MBC ([6]; S. aureus strain 62): 1/1 μ/mL
- MIC ([6]; S. aureus strain 62): 1/1 μ/mL
- MBC ([6]; S. aureus strain ATCC 29213): 2 μ/mL
- MIC ([6]; S. aureus strain ATCC 29213): 1 μ/mL
- cross-resistance [7]: observed
